ChEMBL document CHEMBL5244223, “l,8-Naphthalimide based DNA intercalators and anticancer agents. A systematic review from 2007 to 2017” (Eur J Med Chem, 2018)
Values after ≈ are worked out from the molar mass of the structure shown.

Tests used:
Sarcoma-180 [1] = test: Inhibition of RNA synthesis in mouse Sarcoma-180 cells at 8 uM incubated for 60 mins by [3H]-uridine incorporation based scintillation counter analysis; format: functional; conditions: Sarcoma-180, 1 h
Sarcoma-180 [2] = test: Antitumor activity against mouse Sarcoma-180 cells xenografted in Swiss mouse assessed as T/C ratio at 0.5 mg/kg, po daily measured upto 7 days; format: functional; conditions: time <= 7 day
Sarcoma-180 [3] = test: Inhibition of DNA synthesis in mouse Sarcoma-180 cells at 8 uM incubated for 30 mins by [3H]-thymidine incorporation based scintillation counter analysis; format: functional; conditions: Sarcoma-180, 0.5 h
Ehrlich = test: Antitumor activity against mouse EAC cell xenografted in Swiss mouse assessed as T/C ratio at 25 mg/kg, po daily measured upto 7 days; format: functional; conditions: time <= 7 day
Sarcoma-180 [4] = test: Antitumor activity against mouse Sarcoma-180 cells xenografted in Swiss mouse assessed as T/C ratio at 25 mg/kg, po daily measured upto 7 days; format: functional; conditions: time <= 7 day
Shigella dysenteriae = test: Antibacterial activity against Shigella dysenteriae assessed as inhibition of bacterial growth by two-fold serial dilution assay; format: functional
MCF7 = test: Cytotoxicity against human MCF7 cells assessed as cell growth inhibition by CCK-8 assay; format: functional, cell-based
Proteus vulgaris = test: Antibacterial activity against Proteus vulgaris assessed as inhibition of bacterial growth by two-fold serial dilution assay; format: functional

Structure (SMILES) | inhibition at 8 µM (Sarcoma-180 [1]) | T/C (Sarcoma-180 [2]) | inhibition at 8 µM (Sarcoma-180 [3]) | T/C (Ehrlich) | T/C (Sarcoma-180 [4]) | MIC (Shigella dysenteriae) | IC50 (MCF7) | MIC (Proteus vulgaris)
CN(C)CCN1C(=O)c2cccc3cc([N+](=O)[O-])cc(c23)C1=O [MITONAFIDE] | 94% | 187% | 99% | – | – | – | – | –
O=NN(CCCl)C(=O)NC1CCCCC1 [LOMUSTINE] | 90% | – | 64% | >240% | >279% | – | – | –
CCNc1ccc2c3c(cccc13)C(=O)N(CC(O)Cn1c([N+](=O)[O-])cnc1C)C2=O (stereo not given) | – | – | – | – | – | 10 µM (≈ 4.23 µg/mL) | 8.51 µM | 2 µM (≈ 0.847 µg/mL)
